Laboratory results as given in patent US20100261768A1, “Bioavailable Compositions of Amorphous Alpha-(N-Sulfonamido)Acetamide Compound” (Bristol-Myers Squibb Company, priority 2009, published 2010).

Experiments:
aqueous solubility = format: physicochemical; conditions: aqueous medium; at about room temperature
Method: (§1) Unfortunately, (2R)-2-[[(4-chlorophenyl)sulfonyl][[2-fluoro-4-(1,2,4-oxadiazol-3-yl)phenyl]methyl]amino]-5,5,5-trifluoropentanamide has poor aqueous solubility that is often characterized as <1 ug/mL at about room temperature. […] Thus, it now appears that in order to provide optimal exposure of the API, an amorphous (non-crystalline) form of the active compound should be provided.

[1] = solubility of the compound in PVP-VA; format: physicochemical; conditions: at a temperature of about 100° C.
Method: In order to prepare the compositions hereinabove described, various preparation means available to the skilled artisan may be utilized. It is preferred that the compositions containing the active compound and PVP-VA be prepared by the methods of hot-melt extrusion or spray-drying, with hot-melt extrusion being more preferred. A processing temperature of about 150-160° C. is preferred for hot-melt extrusion processing of the active compound using apparatus available in the art.

[2] = bioavailability after particle size reduction; format: in vivo
Method: as §1

- solubility (aqueous solubility): < 1 µg/mL
- soluble in PVP-VA [1]: less than 5%
- improvement in bioavailability by particle size reduction [2]: no appreciable improvement
Compound: NC(=O)[C@@H](CCC(F)(F)F)N(Cc1ccc(-c2ncon2)cc1F)S(=O)(=O)c1ccc(Cl)cc1 [(2R)-2-[[(4-chlorophenyl)sulfonyl][[2-fluoro-4-(1,2,4-oxadiazol-3-yl)phenyl]methyl]amino]-5,5,5-trifluoropentanamide]
